Assay results from patent US20170014422A1 (SYNTHON B.V., priority 2014, published 2017).
Structures can show the parent of a compound that is named as a salt.

Assay: Laboratory observation of polymorphic transformation of polymorph IV in pharmaceutical compositions
Type: physicochemical
Conditions: especially in pharmaceutical compositions; more pronounced in humid environments

For COc1cc2c(cc1OC)CC(=O)N(CCCN(C)C[C@H]1Cc3cc(OC)c(OC)cc31)CC2 [ivabradine hydrochloride polymorph IV, 3-(3-{[((7S)-3,4-dimethoxybicyclo[4.2.0]octa-1,3,5-trien-7-yl)methyl]methylamino}propyl)-7,8-dimethoxy-1,3,4,5-tetrahydro-2H-3-benzazepin-2-one], the “Polymorphic stability over time” value was “transforms over time into the more stable polymorph β”.
